Data set [1] is described as follows: clinical. Conditions: human, in vivo, iv.
The nature of data set [2]: clinical. Conditions: human, in vivo, iv, t1/2.
Data set [3] is described as follows: clinical. Conditions: human, in vivo, iv. This is another data set of the same source.
The conditions of data set [4]: human, in vivo, iv.
The conditions of data set [5]: human, in vivo, iv. The source holds these as a separate data set.
The conditions of data set [6]: human, in vivo, iv. The source holds these as a separate data set.
For data set [7] the following is noted: human, in vivo, iv. This is another data set of the same source.
The conditions of data set [8]: human, in vivo, iv. The source holds these as a separate data set.
The nature of data set [9]: clinical. Conditions: human, in vivo, iv, CL.
Data set [10] is described as follows: clinical. The settings on record: human, in vivo, iv, Vdss.

In the case of `C[C@H]1[C@H](OC(=O)CCC(=O)O)O[C@@H]2O[C@@]3(C)CC[C@H]4[C@H](C)CC[C@@H]1[C@@]24OO3` [ARTESUNATE], the fraction unbound in “clinical [1]” was determined as 0.25. Further, the half-life in “clinical [2]” is 0.22 h. In “clinical [3]”, the mean residence time (MRT) is 0.32 h. In addition, in data set [4], the CL is recorded as 1070 mL/min/kg.

Regarding GADOVERSETAMIDE, the Vdss in data set [5] came to 0.16 L/kg. The same compound registered a fu in data set [6] of 1. This compound also had a t1/2 in [7] of 1.7 h. The mean residence time MRT in data set [8] is recorded as 2.2 h. This compound also had a CL in data set [4] of 1.2 mL/min/kg.

For `C[C@@H](O)[C@H]1C(=O)N2C(C(=O)O)=C(S[C@@H]3CN[C@H](C(=O)N(C)C)C3)[C@H](C)[C@H]12` [MEROPENEM], the clearance in the data set “clinical [9]” turned out to be 3.9 mL/min/kg. In addition, in “clinical [1]”, the fraction unbound came out at 0.87. This compound also yielded an MRT in data set [8] of 1.3 h. This compound gave a half-life in the data set “clinical [2]” of 1 h.

In [5], `COC(=O)C(c1ccccc1)C1CCCCN1` (centres undefined) [METHYLPHENIDATE] returned a Vdss of 2.2 L/kg. Also, the t1/2 in [7] is given as 4.8 h. Further, in “clinical [1]”, the fraction unbound amounted to 0.85. This compound also yielded an MRT in data set [8] of 4.5 h. The compound also yielded a CL in data set [4] of 0.55 mL/min/kg.

The compound `COc1ccnc(C[S+]([O-])c2nc3ccc(OC(F)F)cc3[nH]2)c1OC` (centres undefined) [PANTOPRAZOLE] registered a Vdss in data set [5] of 0.17 L/kg. Further, the clearance in the data set “clinical [9]” is 2.2 mL/min/kg. Moreover, the fraction unbound in the data set “clinical [1]” came out at 0.02. Also, the half-life in “clinical [2]” is 1.9 h. The same compound had an MRT in “clinical [3]” of 1.9 h.

`NCCCC[C@H](NC(=O)[C@@H](Cc1cc(Br)c(O)c(Br)c1)NC(=O)N1CCC(N2Cc3ccccc3NC2=O)CC1)C(=O)N1CCN(c2ccncc2)CC1` [OLCEGEPANT] returned a Vdss in data set [5] of 0.31 L/kg. Further, the clearance in “clinical [9]” came out at 2.6 mL/min/kg. The half-life in “clinical [2]” is 2.5 h. Moreover, in “clinical [3]”, the MRT came out at 1.9 h.

As to CARBOPLATIN, the Vdss in data set [5] is reported as 0.26 L/kg. Besides, in data set [6], the fu is on record as 1. In data set [7], this compound yielded a t1/2 of 2 h. The compound also showed an MRT in [8] of 3 h. The CL in data set [4] is reported as 1.5 mL/min/kg.

With `O=C(CCCN1CCC(O)(c2ccc(Cl)cc2)CC1)c1ccc(F)cc1` [HALOPERIDOL], the fu in data set [6] was determined as 0.08. The half-life in the data set “clinical [2]” is 35 h. In addition, the MRT in “clinical [3]” was 36 h. This compound also displayed a volume of distribution (Vd) in the data set “clinical [10]” of 17 L/kg.

In the case of `CCC1=C[C@@H]2CN(C1)Cc1c([nH]c3ccccc13)[C@@](C(=O)OC)(c1cc3c(cc1OC)N(C)[C@H]1[C@@](O)(C(=O)OC)[C@H](OC(C)=O)[C@]4(CC)C=CCN5CC[C@]31[C@@H]54)C2` (stereo in doubt; form 2) [VINORELBINE], the distribution volume (Vdss) in data set [5] is 23 L/kg. This compound gave a t1/2 in [7] of 26 h. Further, the fraction unbound in the data set “clinical [1]” came out at 0.87. Moreover, the MRT in [8] came out at 18 h. In addition, in [4], the CL was 20 mL/min/kg.

As to GENTAMICIN, the fu in data set [6] stood at 1. This compound also returned a t1/2 in data set [7] of 4.7 h. The MRT in data set [8] amounted to 5.5 h.

In data set [5], `CCCCS(=O)(=O)N[C@@H](Cc1ccc(OCCCCC2CCNCC2)cc1)C(=O)O` [TIROFIBAN] came in with a Vdss of 0.99 L/kg. Moreover, in “clinical [1]”, the fraction unbound is 0.36. The MRT in data set [8] is on record as 1.8 h. Besides, the half-life in “clinical [2]” was 1.6 h.

In turn, `O=P1(N(CCCl)CCCl)NCCCO1` (centres undefined) [CYCLOPHOSPHAMIDE ANHYDROUS] gave a t1/2 in [7] of 8 h. Moreover, the MRT in “clinical [3]” amounted to 11 h. In data set [4], this compound registered a CL of 1.1 mL/min/kg.

Regarding `O=[N+]([O-])O[C@@H]1CO[C@H]2[C@@H]1OC[C@@H]2O` (stereo in doubt; form 2) [ISOSORBIDE MONONITRATE], in data set [7], the t1/2 amounted to 4.1 h. In data set [8], this compound returned an MRT of 5.8 h. This compound also gave a Vd in the data set “clinical [10]” of 0.7 L/kg. The CL in [4] worked out at 2 mL/min/kg.

In [5], `O=[N+]([O-])O[C@@H]1CO[C@H]2[C@@H]1OC[C@@H]2O` (stereo in doubt; form 1) [ISOSORBIDE MONONITRATE] had a Vdss of 0.86 L/kg. This compound also returned a t1/2 in [7] of 1.9 h. This compound also came in with an MRT in [8] of 2.3 h. In addition, in data set [4], the CL is recorded as 6.2 mL/min/kg.

In data set [5], `O=[N+]([O-])O[C@H]1CO[C@H]2[C@@H]1OC[C@H]2O[N+](=O)[O-]` [ISOSORBIDE DINITRATE] had a Vdss of 1.9 L/kg. This compound yielded a clearance in the data set “clinical [9]” of 31 mL/min/kg. Further, in the data set “clinical [1]”, the unbound share (fraction unbound) was 0.72. Besides, in the data set “clinical [2]”, the half-life was 1.69 h. Moreover, in the data set “clinical [3]”, the MRT amounted to 1 h.

One may read the fraction unbound as the share of the substance not bound to proteins or other matrix. The term half-life denotes how long it takes for the measured level to halve. A high value points to slow loss. One may read the MRT as the average time that molecules of a dose stay in the body. In general, Vdss refers to the apparent volume that relates the amount in the body to the concentration in plasma or blood. In general, clearance refers to the volume of plasma or blood freed of the substance per unit of time. Read a low clearance as a low capacity for elimination. As usually defined, the Vd is the apparent volume that relates the amount in the body to the concentration in plasma or blood.
